Experimental data from EP0043274A2, “Antithrombotic treatment” (priority 1980, dated 1982).
Where “and” joins values, the source holds several entries; their conditions need not be identical. Equal entries are not always repeated. Where two headings read alike, the source gives them in different places.

What was measured:
[1] = system: thrombus formation in the jugular vein; assay: I 125 fibrinogen technique, damaged jugular vein (venous thrombosis), continuous infusion; format: in vivo, rabbits; details: for thrombus formation in the jugular vein (conclusion in words): continuous infusion for five hours
Protocol: The anti venous thrombotic effect of sodium bisulfite is evaluated in rabbits by using I ^125 fibrinogen technique as described in an article in "Archives of Surgery" Vol. 104, pg. 152 (1972).
The rabbit was continuously infused with aqueous sodium bisulfite solution at the rate of […]. (5.154 gram per hour) (animal body weight 2.3 kg) for a time of five hours. After 5 hours, the animal was sacrificed and the radioactive fibrinogen accumulated in the damaged jugular vein was determined. The radioactivity on the contra-lateral (undamaged) jugular vein was also determined to serve as a control. Concurrently, another rabbit had experienced the same procedure but received only a standard sodium chloride solution as a control. The rabbit from the normal saline solution has seven times as much radioactivity as his counterpart infused with sodium bisulfite.
Two jugular veins on a normal, healthy rabbit are exposed and one of the veins is systematically damaged by clamping in two longitudinally spaced places. The rabbit is then continuously infused with aqueous sodium formaldehyde bisulfite at the rate of […] (5.154 gram per hour) (animal body weight 2.3 kg). The rabbit is then injected with fibrinogen labeled with I^125. After 5 hours, the damaged jugular vein is evaluated for radioacive count with a Geiger counter.
This iodine 125 evaluation technique is described by Kakkar in Archieves of Surgery, Vol. 104, pg. 152 (1972) and by Kelton, J.G. et al, Journal of Clinical Investigation, Vol. 62, pgs. 892-895, (1978). […] Other rabbits, similarly evaluated, died, apparently because of overdose by the infustion technique.

human plasma [2] = format: biochemical; details: for PT (effect in words): in vitro
human plasma [3] = format: biochemical; details: for PTT(seconds) Exp. 2 A: Active Agent 0.5/ml, test sequences A and B, control 50.5 (A), 44.5 (B); for PTT (effect in words): in vitro
rat plasma = assay: Blood coagulation tests (PT, PTT, coagulation factors) in vitro; format: biochemical; details: rat plasma in vitro, 0.5 mg/ml
Text: (§1) The alkali metalbisulfites, sodium and potassium, and ammonium bisulfite are found to prolong PT and PTT in a dose-related fashion.

rabbit plasma = assay: as above; format: biochemical; details: rabbit plasma in vitro, 0.5 mg/ml
Text: as §1
The Solution I is found to prolong PT and PTT in a dose related fashion. […] The agent is active in inhibiting various coagulation factors, including factors VII, IX, X, XI, and XII.

[4] = 0.5 mg/ml, two different days, control 42.6 / 42.10
[5] = 0.5 mg/ml, two different days, control 13.40

CCCCCCCCN.O=S(O)O [n-octyl amine bisulfite]
thrombus formation in the jugular vein (conclusion in words) [1]: definite positive antithrombotic effect

CCCC[N+](CCCC)(CCCC)CCCC [tetrabutyl ammonium bisulfite]
radioactivity (I 125 fibrinogen) in damaged jugular vein of saline control rabbit relative to treated rabbit ([1]; continuous infusion .001 mg/kg min (5.154 gram per hour) for five hours): approximately 7 times

CCCCN(CCCC)CCCC.O=S(O)O [tri-n-butyl amine bisulfite]
thrombus formation in the jugular vein (conclusion in words) [1]: definite positive antithrombotic effect

Ammonium Sulfite
PT (human plasma [2]): 16.08 s
PT(seconds) Exp. 1 A (human plasma [2]): 14.7 s
PT(seconds) Exp. 2 A (human plasma [2]): 16.9 s
PTT(seconds) Exp. 1 A (human plasma [3]): 56.5 s
PTT (human plasma [3]; [4]): 58.80 s
PTT(seconds) Exp. 2 A (human plasma [3]): 65.2 s

Na2SO4 [reference compound]
PT (human plasma [2]; [5]): 13.6 s
PTT (human plasma [3]; [4]): 44.2 s

Na Sulfide [reference compound]
PT (human plasma [2]; [5]): 21.12 s
PTT (human plasma [3]; [4]): 78.50 s

Na-hydrosulfite [reference compound]
PT (human plasma [2]; [5]): 14.4 s
PTT sec (human plasma [3]; [4]): 45.2 (39.0) sec

Sodium Sulfite
PT (human plasma [2]): 16.38 s
PT(seconds) Exp. 1 A (human plasma [2]): 16.8 s and 16.2 s
PT(seconds) Exp. 2 A (human plasma [2]): 17.7 s
PT (human plasma [2]; coded agents 0.5mg/ml, […], control 12.92): 16.14 s
PTT(seconds) Exp. 1 A (human plasma [3]): 74.8 s and 66.1 s
PTT (human plasma [3]; [4]): 66.53 s
PTT(seconds) Exp. 2 A (human plasma [3]): 82.1 s and 80.7 s
PTT (human plasma [3]; coded agents 0.5mg/ml, […], control 43.38): 64.62 s

Sodium thiosulfate [SI6, reference compound]
PT (human plasma [2]): 13.5 s
PTT (human plasma [3]): 46.2 s

ammonium bisulfite
PT (effect in words) (human plasma [2]; 0.5 mg/ml): significantly prolong
PT and PTT (effect in words) (rat plasma): significantly prolong
PT and PTT (effect in words) (rabbit plasma): significantly prolong
PTT (effect in words) (human plasma [3]; 0.5 mg/ml): significantly prolong

benzaldhyde [reference compound]
PT (effect in words) (human plasma [2]; 0.5 mg/ml): minimal effect
PTT (effect in words) (human plasma [3]; 0.5 mg/ml): minimal effect

cyclohexane [reference compound]
PT (effect in words) (human plasma [2]; 0.5 mg/ml): minimal effect
PTT (effect in words) (human plasma [3]; 0.5 mg/ml): minimal effect
